# pKi: −log10 of the molar value.
# Molecular target: T1, human cloned 5-HT6 receptors (Homo sapiens, UniProt P50406)
# T1 construct: expressed in transfected cells; host or cells: Hela cells
# Test: 5-HT6 binding affinity ([3H]-LSD displacement, membranes of Hela cells expressing human cloned 5-HT6 receptors)
# Conditions: [3H]-LSD 3.0 nM, 120 min, room temperature, Hela cell membranes
# Protocol: The affinity of test compounds for the serotonin 5-HT6 receptor is evaluated in the following manner. Cultured Hela cells expressing human cloned 5-HT6 receptors are harvested and centrifuged at low speed (1,000×g) for 10.0 min to remove the culture media. The harvested cells are suspended in half volume of fresh physiological phosphate buffered saline solution and recentrifuged at the same speed. This operation is repeated. The collected cells are then homogenized in ten volumes of 50 mM Tris.HCl (pH 7.4) and 0.5 mM EDTA. The homogenate is centrifuged at 40,000×g for 30.0 min and the precipitate is collected. The obtained pellet is resuspended in 10 volumes of Tris.HCl buffer and recentrifuged at the same speed. The final pellet is suspended in a small volume of Tris.HCl buffer and the tissue protein content is determined in aliquots of 10-25 μl volumes. Bovine Serum Albumin is used as the standard in the protein determination according to the method described in Lowry et al., J. Biol. Chem., 193:265 (1951). The volume of the suspended cell membranes is adjusted to give a tissue protein concentration of 1.0 mg/ml of suspension. The prepared membrane suspension (10 times concentrated) is aliquoted in 1.0 ml volumes and stored at −70° C. until used in subsequent binding experiments.
# Binding experiments are performed in a 96 well microtiter plate format, in a total volume of 200 μl. […] The test compounds are added in 20.0 μl volume.
# The reaction is allowed to proceed in the dark for 120 min at room temperature, at which time, the bound ligand-receptor complex is filtered off on a 96 well unifilter with a Packard Filtermate® 196 Harvester. The bound complex caught on the filter disk is allowed to air dry and the radioactivity is measured in a Packard TopCount® equipped with six photomultiplier detectors, after the addition of 40.0 μl Microscint®-20 scintillant to each shallow well. The unifilter plate is heat-sealed and counted in a PackardTopCount® with a tritium efficiency of 31.0%.
# Binding in the presence of varying concentrations of test compound is expressed as a percentage of specific binding in the absence of test compound. The results are plotted as log % bound versus log concentration of test compound. […] A linear regression line of data points is plotted, from which the IC50 value is determined and the Ki value is determined based upon the following equation: Ki=IC50/(1+L/KD) where L is the concentration of the radioactive ligand used and KD is the dissociation constant of the ligand for the receptor, both expressed in nM.
# T1 sequence (P50406 whole entry): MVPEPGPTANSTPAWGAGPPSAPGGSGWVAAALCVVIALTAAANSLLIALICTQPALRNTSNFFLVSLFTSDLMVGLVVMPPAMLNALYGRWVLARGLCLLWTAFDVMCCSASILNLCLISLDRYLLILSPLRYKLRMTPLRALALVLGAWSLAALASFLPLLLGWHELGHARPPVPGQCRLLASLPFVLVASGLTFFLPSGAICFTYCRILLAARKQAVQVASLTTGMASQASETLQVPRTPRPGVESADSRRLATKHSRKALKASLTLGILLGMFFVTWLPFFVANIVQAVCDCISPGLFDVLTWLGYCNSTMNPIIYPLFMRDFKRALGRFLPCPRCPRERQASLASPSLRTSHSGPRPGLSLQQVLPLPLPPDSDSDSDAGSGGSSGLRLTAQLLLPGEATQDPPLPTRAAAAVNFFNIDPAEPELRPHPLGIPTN
smiles,measurement,value
"Cc1nc(S(=O)(=O)n2c(=O)n(C3=CCNCC3)c3ccccc32)cn1C [Example 52, 1-[(1,2-dimethyl-1H-imidazol-4-yl)sulfonyl]-3-(1,2,3,6-tetrahydropyridin-4-yl)-1,3-dihydro-2H-benzimidazol-2-one]",pKi,6.88
"Cc1nn(C)c(Cl)c1S(=O)(=O)n1c(=O)n(C2=CCNCC2)c2ccccc21 [Example 53, 1-[(5-chloro-1,3-dimethyl-1H-pyrazol-4-yl)sulfonyl]-3-(1,2,3,6-tetrahydropyridin-4-yl)-1,3-dihydro-2H-benzimidazol-2-one]",pKi,7.55
"Cc1noc(C)c1S(=O)(=O)n1c(=O)n(C2=CCNCC2)c2ccccc21 [Example 54, 1-[(3,5-dimethylisoxazol-4-yl)sulfonyl]-3-(1,2,3,6-tetrahydropyridin-4-yl)-1,3-dihydro-2H-benzimidazol-2-one]",pKi,7.29
"O=c1n(C2=CCNCC2)c2ccccc2n1S(=O)(=O)c1cccc2nsnc12 [Example 55, 1-(2,1,3-benzothiadiazol-4-ylsulfonyl)-3-(1,2,3,6-tetrahydropyridin-4-yl)-1,3-dihydro-2H-benzimidazol-2-one]",pKi,7.92

# Source: patent publication US7544701B2, “Sulfonyldihydrobenzimidazolone compounds as 5-hydroxytryptamine-6 ligands” (Wyeth, priority 2003, dated 2009)
